26 compounds from patent publication US20230141403A1 (Hoffmann-La Roche Inc., priority 2020, published 2023) can be followed below.

Structures can show the parent of a compound that is named as a salt.

One test concerns Acinetobacter baumannii ATCC17961. Briefly: Antimicrobial susceptibility testing: 90% growth inhibitory concentration (IC90) determination. It counts as cell-based. Conditions: 90% growth inhibitory concentration; Iso-Sensitest broth, optical density at 600 nm over 16h, 35±2° C.; read-out: AB ATCC 17961 IC90. Here is the method: Antimicrobial Susceptibility Testing:
90% Growth Inhibitory Concentration (IC90) Determination
The in vitro antimicrobial activity of the compounds was determined according to the following procedure:
The assay used a 10-points Iso-Sensitest broth medium to measure quantitatively the in vitro activity of the compounds against Acinetobacter baumannii ATCC17961 or ATCC17978.
Stock compounds in DMSO were serially twofold diluted (e.g. range from 50 to 0.097 μM final concentration) in 384 wells microtiter plates and inoculated with 49 μl the bacterial suspension in Iso-Sensitest medium to have a final cell concentration of ˜5×10^(5) CFU/ml in a final volume/well of 50 ul/well. Microtiter plates were incubated at 35±2° C.
Bacterial cell growth was determined with the measurement of optical density at λ=600 nm each 20 minutes over a time course of 16h. Growth inhibition was calculated during the logarithmic growth of the bacterial cells with determination of the concentration inhibiting 50% (IC50) and 90% (IC90) of the growth.
Table 2 provides the 90% growth inhibitory concentrations (IC90) in micromoles per liter of the compounds of present invention obtained against the strain Acinetobacter baumannii ATCC17961.
For `CN=S(C)(=O)c1ccc(Nc2nccn3c(-c4ccc(OC)c(F)c4F)cnc23)cc1C` (centres unmarked) [Example 22, 3-(2,3-difluoro-4-methoxy-phenyl)-N-[4-(N,S-dimethylsulfonimidoyl)-3-methyl-phenyl]imidazo[l,2-a]pyrazin-8-amine], the 90% effect concentration (IC90) was found to be 0.084 µM.

The test is the same for the next values; noted with them: Acinetobacter baumannii, ATCC17961, 16 h, 90% growth inhibitory concentration; Iso-Sensitest broth, optical density at 600 nm over 16h, 35±2° C.; read-out: AB ATCC 17961 IC90.
For `COc1ccc(-c2cnc3c(Nc4ccc(NC(C)=O)cc4)nccn23)cc1` [Example 15, N-[4-[[3-(4-methoxyphenyl)imidazo[1,2-a]pyrazin-8-yl]amino]phenyl]acetamide], the IC90 came to 0.6 µM.
As for `O=C1CCCN1c1ccc(Nc2nccn3c(-c4ccc(OC(F)F)cc4)cnc23)cc1Cl` [Example 94, 1-(2-chloro-4-((3-(4-(difluoromethoxy)phenyl)imidazo[1,2-a]pyrazin-8-yl)amino)phenyl)pyrrolidin-2-one], the IC90 was 0.12 µM.
For `COc1ccc(-c2cnc3c(Nc4ccc(S(=O)(=O)NCCOCCN(C)C)c(C)c4)nccn23)c(F)c1F` [Example 99, 4-((3-(2,3-difluoro-4-methoxyphenyl)imidazo[1,2-a]pyrazin-8-yl)amino)-N-(2-(2-(dimethylamino)ethoxy)ethyl)-methylbenzene sulfonamide], the concentration for an effect of 90% (IC90) turned out to be 0.28 µM.
As to `CN=S(C)(=O)c1ccc(Nc2nccn3c(-c4ccc(OCC#N)c(F)c4F)cnc23)cc1C` (centres unmarked) [Example 25, 2-(4-(8-((4-(N,S-dimethylsulfonimidoyl)-3-methylphenyl)amino)imidazo[1,2-a]pyrazin-3-yl)-2,3-difluorophenoxy) acetonitrile], the concentration for an effect of 90% (IC90) came to 0.048 µM.
`CN=S(=O)(CCCN)c1ccc(Nc2nccn3c(-c4ccc(OC)c(F)c4F)cnc23)cc1` (centres unmarked) [Example 71, N-(4-(3-amino-N-methylpropylsulfonimidoyl)phenyl)-3-(2,3-difluoro-4-methoxyphenyl)imidazo[1,2-a]pyrazin-8-amine]: the 90% effect concentration (IC90) was determined as 0.086 µM.
As to `CN=S(=O)(c1ccc(Nc2nccn3c(-c4ccc(OC)c(F)c4F)cnc23)cc1C)N(C)C` (stereo not drawn) [Example 31, 3-(2,3-difluoro-4-methoxy-phenyl)-N-[4-[S-(dimethylamino)-N-methyl-sulfonimidoyl]-3-methyl-phenyl]imidazo[1,2-a]pyrazin-8-amine], the IC90 is 0.5 µM.
`COc1ccc(-c2cnc3c(Nc4ccc(N5CCC(CN)CC5)c(C)c4)nccn23)c(F)c1F` [Example 113, N-(4-(4-(aminomethyl)piperidin-1-yl)-3-methylphenyl)-3-(2,3-difluoro-4-methoxyphenyl) imidazo [1,2-a]pyrazin-8-amine hydrochloride]: the concentration for an effect of 90% (IC90) is 0.37 µM.
As to `CCc1cc(Nc2nccn3c(-c4ccc(OC)c(F)c4F)cnc23)ccc1C[N+](C)(C)C` [Example 123, [4-[[3-(2,3-difluoro-4-methoxy-phenyl)imidazo[1,2-a]pyrazin-8-yl]amino]-2-ethyl-phenyl]methyl-trimethyl-ammonium], the IC90 is 0.58 µM.
In the case of `CCc1cc(Nc2nccn3c(-c4ccc(OC)c(F)c4F)cnc23)ccc1S(=O)(=O)N1CCN(C(=O)C[N+](C)(C)C)CC1` [Example 110, 2-(4-((4-((3-(2,3-difluoro-4-methoxyphenyl)imidazo[1,2-a]pyrazin-8-yl)amino)-2-ethylphenyl)sulfonyl)piperazin-1-yl)-N,N,N-trimethyl-2-oxoethan-1-aminium iodide], the 90% effect concentration (IC90) was determined as 0.33 µM.
For the compound `COc1ccc(-c2cnc3c(Nc4ccc(S(=O)(=O)NCCOCCN)c(C)c4)nccn23)c(F)c1F` [Example 100, N-(2-(2-aminoethoxy)ethyl)-4-((3-(2,3-difluoro-4-methoxyphenyl)imidazo[1,2-a]pyrazin-8-yl)amino)-2-methylbenzenesulfonamide hydrochloride], the IC90 worked out at 0.12 µM.
Consider `CCc1cc(Nc2nccn3c(-c4ccc(OC)c(F)c4F)cnc23)ccc1S(=O)(=O)N1CCN(C(=O)[C@@H]2C[C@@H](O)CN2)CC1` [Example 106, (4-((4-((3-(2,3-difluoro-4-methoxyphenyl)imidazo [1,2-a]pyrazin-8-yl)amino)-2-ethylphenyl)sulfonyl)piperazin-1-yl)((2S,4R)-4-hydroxypyrrolidin-2-yl)methanone hydrochloride], for which the IC90 worked out at 0.25 µM.
For `COc1ccc(-c2cnc3c(Nc4ccc(S(=O)(=O)NCCOCCN(C)C)c(Cl)c4)nccn23)c(F)c1F` [Example 97], the concentration for an effect of 90% (IC90) was 0.18 µM.
With `CCc1cc(Nc2nccn3c(-c4ccc(OC)c(F)c4F)cnc23)ccc1S(=O)(=O)N1CCN(C(=O)[C@@H]2CCN(C(=O)[C@@H]3C[C@@H](O)CN3)C2)CC1` [Example 111, (4-((4-((3-(2,3-difluoro-4-methoxyphenyl)imidazo[1,2-a]pyrazin-s-yl)amino)-2-ethylphenyl)sulfonyl)piperazin-1-yl)((R)-1-((2S,4R)-4-hydroxypyrrolidine-2-carbonyl)pyrrolidin-3-yl)methanone hydrochloride], the IC90 amounted to 0.87 µM.
For the compound `CCc1cc(Nc2nccn3c(-c4ccc(OC)c(F)c4F)cnc23)ccc1S(=O)(=O)N1CCN(C(=O)[C@@H]2CCCN2)CC1` [Example 105, (S)(4-(4-((3-(2,3-difluoro-4-methoyphenyl)imidazo[1,2-a]pyrazin-8-yl)amino)-2-ethylphenyl)sulfonyl)piperazin-1-yl)(pyrrolidin-2-yl)methanone hydrochloride], the concentration for an effect of 90% (IC90) stood at 0.31 µM.
`CN=S(C)(=O)c1ccc(Nc2nccn3c(-c4ccc(OC)c(F)c4F)cnc23)cc1Cl` (centres unmarked) [Example 23, N-[3-chloro-4-(N,S-dimethylsulfonimidoyl)phenyl]-3-(2,3-difluoro-4-methoxy-phenyl)imidazo[1,2-a]pyrazin-8-amine]: the IC90 was found to be 0.11 µM.
The same measure, in the same setting: then `O=C1NCCN1c1ccc(Nc2nccn3c(-c4ccc(OC(F)F)cc4)cnc23)cc1` [Example 3, 1-[4-[[3-[4-(difluoromethoxy)phenyl]imidazo[1,2-a]pyrazin-8-yl]amino]phenyl]imidazolidin-2-one], with 0.72 µM; and `CCc1cc(Nc2nccn3c(-c4ccc(OC)c(F)c4F)cnc23)ccc1S(=O)(=O)N1CCN(C(=O)[C@@H]2CCNC2)CC1` [Example 107, (R)-(4-(4-((3-(2,3-difluoro-4-methoxyphenyl)imidazo[1,2-a]pyrazin-8-yl)amino)-2-ethylphenyl)sulfonyl) piperazin-1-yl)(pyrrolidin-3-yl)methanone hydrochloride], with 0.2 µM.
In the case of `CN=S(=O)(c1ccc(Nc2nccn3c(-c4ccc(OC)c(F)c4F)cnc23)cc1C)C1CCN(C(=O)[C@@H]2C[C@@H](O)CN2)CC1` (stereo partly drawn) [Example 73, (4-(4-((3-(2,3-difluoro-4-methoxyphenyl)imidazo[1,2-a]pyrazin-8-yl)amino)-N,2-dimethylphenylsulfonimidoyl)piperidin-1-yl)((2S,4R)-4-hydroxypyrrolidin-2-yl)methanone], the IC90 amounted to 0.33 µM.
With `CCc1cc(Nc2nccn3c(-c4ccc(OC)c(F)c4F)cnc23)ccc1N1CCC(CN)CC1` [Example 114, N-(4-(4-(aminomethyl)piperidin-1-yl)-3-ethylphenyl)-3-(2,3-difluoro-4-methoxyphenyl) imidazo [1,2-a]pyrazin-8-amine hydrochloride], the concentration for an effect of 90% (IC90) came out at 0.81 µM.
Turning to `CCc1cc(Nc2nccn3c(-c4ccc(OC)c(F)c4F)cnc23)ccc1S(=O)(=O)N1CCNCC1` [Example 103, 3-(2,3-difluoro-4-methoxyphenyl)-N-(3-ethyl-4-(piperazin-1-ylsulfonyl)phenyl) imidazo[1,2-a]pyrazin-8-amine hydrochloride], the IC90 worked out at 0.5 µM.
As for `COc1ccc(-c2cnc3c(Nc4ccc(NC(C)=O)c(Cl)c4)nccn23)cc1` [Example 39, N-(2-chloro-4-((3-(4-methoxyphenyl)imidazo[1,2-a]pyrazin-8-yl)amino)phenyl)acetamide], the IC90 is 0.1 µM.
As to `CN=S(C)(=O)c1ccc(Nc2nccn3c(-c4ccc(OC)c(F)c4F)cnc23)cc1F` (centres unmarked) [Example 26, (4-((3-(2,3-difluoro-4-methoxyphenyl)imidazol[1,2-a]pyrazin-4-yl)amino)-2-fluorophenyl)(methyl)(methylimino)-l6-sulfanone], the IC90 stood at 0.14 µM.
`CCc1cc(Nc2nccn3c(-c4ccc(OC)c(F)c4F)cnc23)ccc1S(=O)(=O)N1CCN(C(=O)CN(C)C)CC1` [Example 104, 1-(4-((4-((3-(2,3-difluoro-4-methoxyphenyl)imidazo[1,2-a]pyrazin-8-yl)amino)-2-ethylphenyl)sulfonyl)piperazin-1-yl)-2-(dimethylamino)ethan-1-one]: the IC90 was found to be 0.34 µM.

Still in this test, the particulars now being: Acinetobacter baumannii, ATCC17961, 16 h, read-out: AB ATCC 17961 IC90 (uM).
Take `COc1ccc(-c2cnc3c(Nc4ccc(S(C)(=O)=NCCCN)cc4)nccn23)c(F)c1F` (centres unmarked) [Example 68, N-[4-[N-(3-aminopropyl)-S-methyl-sulfonimidoyl]phenyl]-3-(2,3-difluoro-4-methoxy-phenyl)imidazo[1,2-a]pyrazin-8-amine; formic acid]: the concentration for an effect of 90% (IC90) is 0.43 µM.
For `COc1ccc(-c2cnc3c(Nc4ccc(S(=O)(=O)NCCOCCN)cc4)nccn23)c(F)c1F` [Example 102, N-(2-(2-aminoethoxy)ethyl)-4-(3-(2,3-difluoro-4-methoxyphenyl)imidazo [1,2-a]pyrazin-8-yl)amino) benzenesulfonamide hydrochloride], the 90% effect concentration (IC90) came to 0.39 µM.

What is called IC90 is the concentration at which the effect reaches the 90% level.
